# In patent US12391671B2, “Allosteric EGFR inhibitors and methods of use thereof” (Dana-Farber Cancer Institute, Inc., priority 2019, dated 2025):
# Structures can show the parent of a compound that is named as a salt. Where two headings read alike, the source gives them in different places.
# Columns and labels:
# EGFR L858R = EGFR L858R (Homo sapiens (Human), UniProt P00533, L858R); assay: HTRF-based EGFR biochemical assay (L858R); settings: 100 μM ATP, enzyme 0.1 nM
# Description: (§1) Example 25: HTRF-Based EGFR Biochemical Assays
# (§2) EGFR biochemical activity measurements were carried out using the homogeneous time-resolved fluorescence (HTRF) assay (Cisbio), inhibitors and DMSO normalizations were first dispensed to empty black low-volume 384-well plates (Corning) with 0300 digital liquid dispenser (HP). All reactions were carried out at room temperature and solutions were added to plates with a Multidrop Combi Reagent Dispenser (ThermoFisher). The reaction mixture (10 μL final volume) contained 1 μM tyrosine kinase peptide-biotin substrate and mutant EGFR in a reaction buffer (50 mM HEPES pH 7.0, 5 mM MgCl2, 1 mM MnCl2, 0.01% BSA, 2 mM TCEP, 0.1 mM NaVO4). Enzyme concentrations were adjusted to accommodate varying kinase activities (L858R 0.1 nM, L858R/T790M 0.02 nM). Enzyme reaction solution (2× concentrations, 5 μL) was added to 384-well plates containing compounds and incubated for 30 mins. Enzyme reactions were initiated with the addition of 5 μL of ATP to a final concentration of 100 μM and reacted for 20 mins. Reactions were quenched with the addition of 10 μL of phospho-tyrosine antibody-Europium(III) cryptate (1-to-180 volume ratio) and Streptavidin-XL665 (46.7 nM) in EDTA-containing detection buffer, then incubated at room temperature for 1 hour, and read with a PHERAstar plate reader (excitation=337 nm, emission=620 nm and 665 nm).
# EGFR L858R/T790M = EGFR L858R/T790M (Homo sapiens (Human), UniProt P00533, L858R/T790M); assay: HTRF-based EGFR biochemical assay (L858R/T790M); settings: 100 μM ATP, enzyme 0.02 nM
# Description: as §1, §2
# [1] = system: EGFR mutant L858R/T790M Ba/F3 cells; assay: Ba/F3 cell proliferation model (Cell Titer Glo), EGFR L858R/T790M; type: cell-based, murine; settings: 72 hours
# Text: Example 26: Ba/F3 Cell Proliferation Models
# The EGFR mutant L858R and L858R/T790M Ba/F3 cells have been previously described (Zhou, W., et al. Nature 462, 2009, 1070-1074). All cell lines were maintained in RPM 1640 (Cellgro; Mediatech Inc., Herndon. CA) supplemented with 10% FBS, 100 units/mL penicillin, 100 units/mL streptomycin. The EGFR I941R mutation was introduced via site directed mutagenesis using the Quick Change Site-Directed Mutagenesis kit (Stratagene; La Jolla, CA) according to the manufacturer's instructions. All constructs were confirmed by DNA sequencing. The constructs were shuttled into the retroviral vector JP1540 using the Cre-recombination system (Agilent Technologies, Santa Clara, CA). Ba/F3 cells were then infected with retrovirus per standard protocols, as described previously (Zhou, et al, Nature 2009). Stable clones were obtained by selection in puromycin (2 μg/ml).
# Growth and inhibition of growth was assessed by the Cell Titer Glo® assay (Promega, Madison, WI) and was performed according to the manufacturer's instructions. The Cell Titer Glo® assay is a luminescence-based method used to determine the number of viable cells based on quantitation of the ATP present, which is directly proportional to the amount of metabolically active cells present. Ba/F3 cells of different EGFR genotypes were exposed to compounds as a single agent or in combination with 1 μg/mL cetuximab for 72 hours and the number of cells used per experiment was determined empirically as has been previously established (Zhou, et al., Nature 2009). All experimental points were set up in triplicates in 384-well plates and all experiments were repeated at least three times. […] The curves were fitted using a non-linear regression model with a sigmoidal dose response.
# [2] = Mus musculus, BaF3, single agent, read-out: Cell IC50 BaF3 EGFR L858R/T790M
# [3] = in combination with 1 μg/mL cetuximab, read-out: Cell IC50 BaF3 EGFR L858R/T790M (+cetux.)
# EGFR L858R/T790M, sequence (P00533 25-1210 T790M/L858R): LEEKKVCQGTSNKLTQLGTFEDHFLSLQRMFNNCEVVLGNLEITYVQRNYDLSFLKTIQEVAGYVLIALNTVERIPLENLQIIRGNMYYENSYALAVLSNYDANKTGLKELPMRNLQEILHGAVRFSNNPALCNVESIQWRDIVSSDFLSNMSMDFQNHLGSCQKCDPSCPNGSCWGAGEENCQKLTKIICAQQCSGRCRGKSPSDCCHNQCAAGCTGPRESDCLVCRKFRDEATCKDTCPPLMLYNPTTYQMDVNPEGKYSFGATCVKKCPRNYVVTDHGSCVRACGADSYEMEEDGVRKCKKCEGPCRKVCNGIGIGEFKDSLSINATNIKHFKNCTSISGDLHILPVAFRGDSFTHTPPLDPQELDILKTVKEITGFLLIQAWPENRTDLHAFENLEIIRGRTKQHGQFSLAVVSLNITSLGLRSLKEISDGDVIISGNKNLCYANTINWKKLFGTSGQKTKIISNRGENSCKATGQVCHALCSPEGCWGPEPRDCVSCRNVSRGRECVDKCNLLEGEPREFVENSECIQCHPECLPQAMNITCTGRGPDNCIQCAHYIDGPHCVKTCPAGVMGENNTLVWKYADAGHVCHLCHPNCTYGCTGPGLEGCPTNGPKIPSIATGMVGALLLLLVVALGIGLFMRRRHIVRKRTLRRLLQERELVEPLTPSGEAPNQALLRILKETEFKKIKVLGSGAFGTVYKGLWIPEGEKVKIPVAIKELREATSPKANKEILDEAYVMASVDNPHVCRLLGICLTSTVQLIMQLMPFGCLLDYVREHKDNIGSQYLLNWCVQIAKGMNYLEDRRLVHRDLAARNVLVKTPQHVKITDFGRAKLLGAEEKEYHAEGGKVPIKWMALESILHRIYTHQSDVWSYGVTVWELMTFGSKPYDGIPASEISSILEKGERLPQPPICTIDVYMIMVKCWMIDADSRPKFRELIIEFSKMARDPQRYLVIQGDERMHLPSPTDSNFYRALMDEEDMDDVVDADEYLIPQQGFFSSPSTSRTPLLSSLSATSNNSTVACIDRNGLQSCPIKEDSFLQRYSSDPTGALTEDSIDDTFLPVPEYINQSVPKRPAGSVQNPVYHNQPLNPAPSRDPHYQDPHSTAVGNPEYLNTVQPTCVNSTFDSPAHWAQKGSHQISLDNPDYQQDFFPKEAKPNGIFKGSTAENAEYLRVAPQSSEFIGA
# EGFR L858R, sequence (P00533 25-1210 L858R): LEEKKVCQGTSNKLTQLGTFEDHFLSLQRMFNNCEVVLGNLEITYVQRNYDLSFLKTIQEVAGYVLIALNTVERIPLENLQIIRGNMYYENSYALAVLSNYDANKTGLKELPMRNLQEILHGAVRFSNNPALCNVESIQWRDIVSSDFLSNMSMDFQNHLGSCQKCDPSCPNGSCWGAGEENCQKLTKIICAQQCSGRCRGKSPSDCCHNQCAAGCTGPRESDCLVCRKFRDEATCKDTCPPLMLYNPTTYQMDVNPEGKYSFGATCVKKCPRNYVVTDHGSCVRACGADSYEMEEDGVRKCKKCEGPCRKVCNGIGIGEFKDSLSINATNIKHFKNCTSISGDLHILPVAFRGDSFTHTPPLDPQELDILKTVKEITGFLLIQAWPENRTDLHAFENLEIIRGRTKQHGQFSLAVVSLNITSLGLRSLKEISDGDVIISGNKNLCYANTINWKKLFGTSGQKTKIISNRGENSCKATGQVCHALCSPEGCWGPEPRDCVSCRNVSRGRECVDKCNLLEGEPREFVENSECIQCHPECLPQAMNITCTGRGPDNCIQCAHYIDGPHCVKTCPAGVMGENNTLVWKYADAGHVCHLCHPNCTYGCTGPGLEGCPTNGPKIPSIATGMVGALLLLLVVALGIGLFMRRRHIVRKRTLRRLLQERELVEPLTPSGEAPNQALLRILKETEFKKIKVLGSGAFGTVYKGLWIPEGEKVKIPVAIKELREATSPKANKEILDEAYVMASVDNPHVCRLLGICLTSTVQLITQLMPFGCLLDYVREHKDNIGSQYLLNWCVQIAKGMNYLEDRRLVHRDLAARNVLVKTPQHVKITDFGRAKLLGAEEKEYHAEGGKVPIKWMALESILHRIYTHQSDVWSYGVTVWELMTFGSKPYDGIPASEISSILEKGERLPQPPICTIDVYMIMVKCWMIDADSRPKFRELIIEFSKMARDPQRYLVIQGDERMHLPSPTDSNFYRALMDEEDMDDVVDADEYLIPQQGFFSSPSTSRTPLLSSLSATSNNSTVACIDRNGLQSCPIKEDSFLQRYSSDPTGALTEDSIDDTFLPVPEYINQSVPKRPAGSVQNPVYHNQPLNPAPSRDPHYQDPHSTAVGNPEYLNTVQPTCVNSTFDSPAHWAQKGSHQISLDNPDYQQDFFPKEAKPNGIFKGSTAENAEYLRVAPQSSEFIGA
SMILES,IC50 (EGFR L858R),IC50 (EGFR L858R/T790M),also measured
"CN1CCC(c2ccc(-c3ccc4c(n3)C(=O)N([C@@H](c3nc5ccccc5[nH]3)c3cc(F)ccc3O)C4)cc2)CC1 (single isomer, unassigned) [Compound 106]",3 nM,0.8 nM,–
"CN1CCC(c2ccc(-c3ccc4c(c3)C(=O)N(C(c3nc5ccccc5[nH]3)c3cccc(Cl)c3O)C4)cc2)CC1 (stereo not drawn) [Compound 043, 2-[1H-benzimidazol-2-yl-(3-chloro-2-hydroxy-phenyl)-methyl]-6-[4-(1-methyl-4-piperidyl)phenyl]isoindolin-1-one; dihydrochloride]",–,–,"IC50 [1, 2]: 4940 nM; IC50 [1, 3]: 580 nM"
"CN1CCC(c2ccc(-c3ccc4c(=O)n([C@@H](c5nc6ccccc6[nH]5)c5cc(F)ccc5O)ccc4c3)cc2)CC1 (single isomer, unassigned) [Compound 067]",11 nM,4 nM,–
"COc1cc2cn(C(c3nc4ccccc4[nH]3)c3cc(F)ccc3O)nc2cc1-c1ccc(C2CCN(C)CC2)cc1 (stereo not drawn) [Compound 099, 2-[1H-Benzimidazol-2-yl-[5-methoxy-6-[4-(1-methyl-4-piperidyl)phenyl]indazol-2-yl]methyl]-4-fluoro-phenol]",10 nM,8 nM,–
"[2H]C(c1nc2ccccc2[nH]1)(c1cc(F)ccc1O)n1ccc2cc(-c3ccc(C4CCN(C)CC4)cc3)ccc2c1=O (stereo not drawn) [Compound 112, 2-[1H-Benzimidazol-2-yl-deuterio-(5-fluoro-2-hydroxy-phenyl)methyl]-6-[4-(1-methyl-4-piperidyl)phenyl]isoquinolin-1-one]",3 nM,2 nM,–
"Cc1c[nH]c([C@H](c2cc(F)ccc2O)N2Cc3ccc(-c4ccc(C5CCN(C)CC5)cc4)cc3C2=O)n1 (single isomer, unassigned) [Compound 105]",65 nM,49 nM,–
"[2H][C@](c1nc2ccccc2[nH]1)(c1cc(F)ccc1O)N1Cc2ccc(-c3ccc(C4CCN(C)CC4)cc3)cc2C1=O (single isomer, unassigned) [Compound 038]",–,–,"IC50 [1, 2]: 930 nM; IC50 [1, 3]: 41 nM"
"[2H]C(c1nc2ccccc2[nH]1)(c1cc(F)ccc1O)n1ccc2cc(-c3ccc(C4CCN(C)CC4)cc3)cc(F)c2c1=O (stereo not drawn) [Compound 113, 2-[1H-Benzimidazol-2-yl-deuterio-(5-fluoro-2-hydroxy-phenyl)methyl]-8-fluoro-6-[4-(1-methyl-4-piperidyl)phenyl]isoquinolin-1-one]",14 nM,4 nM,–
"Cc1c[nH]c([C@@H](c2cc(F)ccc2O)N2Cc3ccc(-c4ccc(C5CCN(C)CC5)cc4)c(F)c3C2=O)n1 (single isomer, unassigned) [Compound 94]",1 nM,2 nM,–
"CN1CCC(c2ccc(-c3cc(F)c4c(=O)n([C@@H](c5nc6ccccc6[nH]5)c5cc(F)ccc5O)ccc4c3)cc2)CC1 (single isomer, unassigned) [Compound 116, dihydrochloride]",–,–,IC50 (EGFR L858R; dihydrochloride): 0.8 nM; IC50 (EGFR L858R/T790M; dihydrochloride): 0.2 nM
"CN1CCC(c2ccc(-c3cc(F)c4c(=O)n([C@H](c5nc6ccccc6[nH]5)c5cc(F)ccc5O)ccc4c3)cc2)CC1 (single isomer, unassigned) [Compound 117, 2-[1H-Benzimidazol-2-yl-(5-fluoro-2-hydroxy-phenyl)methyl-8-fluoro-6-[3-fluoro-4-(1-methyl-4-piperidyl)phenyl]isoquinolin-1-one; dihydrochloride]",–,–,IC50 (EGFR L858R; dihydrochloride): > 100 nM; IC50 (EGFR L858R/T790M; dihydrochloride): 81 nM
"CN1CCC2(c3ccc(-c4ccc5c(=O)n(C(c6nc7ccccc7[nH]6)c6cc(F)ccc6O)ccc5c4)cc3)CC2C1 (stereo not drawn) [Compound 108, 2-[1H-Benzimidazol-2-yl-(5-fluoro-2-hydroxy-phenyl)methyl]-6-[4-(3-methyl-3-azabicyclo[4.1.0]heptan-6-yl)phenyl]isoquinolin-1-one; dihydrochloride]",5 nM,2 nM,–
"Cc1cnc(C(c2cc(F)ccc2O)N2Cc3ccc(-c4ccc(C5CCN(C)CC5)cc4)c(F)c3C2=O)[nH]1 (stereo not drawn) [Compound 093, 7-Fluoro-2-[(5-fluoro-2-hydroxy-phenyl)-(5-methyl-1H-imidazol-2-yl)methyl]-6-[4-(1-methyl-4-piperidyl)phenyl]isoindolin-1-one]",3 nM,4 nM,–
"Cc1c[nH]c([C@H](c2cc(F)ccc2O)N2Cc3ccc(-c4ccc(C5CCN(C)CC5)cc4)c(F)c3C2=O)n1 (single isomer, unassigned) [Compound 095]",92 nM,59 nM,–
"Cc1c(-c2ccc(C3CCN(C)CC3)cc2)ccc2cn(C(c3nc4ccccc4[nH]3)c3cc(F)ccc3O)nc12 (stereo not drawn) [Compound 096, 2-[1H-Benzimidazol-2-yl-[7-methyl-6-[4-(1-methyl-4-piperidyl)phenyl]indazol-2-yl]methyl]-4-fluoro-phenol; dihydrochloride]",3 nM,0.8 nM,–
"CN1CCC(c2ccc(-c3ccc4cn(C(c5nc6c(F)cccc6[nH]5)c5cc(F)ccc5O)nc4c3F)cc2)CC1 (stereo not drawn) [Compound 101, 4-Fluoro-2-((4-fluoro-1H-benzo[d]-imidazol-2-yl)(7-fluoro-6-(4-(1-methylpiperidin-4-yl)phenyl)-2H-indazol-2-yl)methyl)phenol; trifluoroacetate]",4 nM,0.8 nM,–
"CN1CCC(c2ccc(-c3ccc4c(n3)C(=O)N([C@H](c3nc5ccccc5[nH]3)c3cc(F)ccc3O)C4)cc2)CC1 (single isomer, unassigned) [Compound 107]",71 nM,17 nM,–
"CN1CCC(c2ccc(-c3ccc4c(=O)n(C(c5nc6c(F)cccc6[nH]5)c5cc(F)ccc5O)ccc4c3)cc2)CC1 (stereo not drawn) [Compound 102, 2-((4-Fluoro-1H-benzo[d]imidazol-2-yl)(5-fluoro-2-hydroxyphenyl)methyl)-6-(4-(1-methylpiperidin-4-yl)phenyl)isoquinolin-1(2H)-one]",6 nM,4 nM,–
"Cc1c[nH]c([C@@H](c2cc(F)ccc2O)N2Cc3ccc(-c4ccc(C5CCN(C)CC5)cc4)cc3C2=O)n1 (single isomer, unassigned) [Compound 104]",1 nM,2 nM,–
"CN1CCC(c2ccc(-c3ccc4c(c3)C(=O)N([C@@H](c3nc5ccccc5[nH]3)c3cc(F)ccc3O)C4)cc2)CC1 (single isomer, unassigned) [Compound 038]",18 nM,6 nM,–
"CN1CCC(c2ccc(-c3ccc4c(c3)C(=S)N([C@H](c3nc5ccccc5[nH]3)c3cc(F)ccc3O)C4)cc2)CC1 (single isomer, unassigned) [Compound 084]",219 nM,232 nM,–
"[2H][C@@](c1nc2ccccc2[nH]1)(c1cc(F)ccc1O)N1Cc2ccc(-c3ccc(C4CCN(C)CC4)cc3)cc2C1=O (single isomer, unassigned) [Compound 037]",–,–,"IC50 [1, 2]: 160 nM; IC50 [1, 3]: 4 nM"
"Cc1cc2cn(C(c3nc4ccccc4[nH]3)c3cc(F)ccc3O)nc2cc1-c1ccc(C2CCN(C)CC2)cc1 (stereo not drawn) [Compound 098, 2-[1H-Benzimidazol-2-yl-[5-methyl-6-[4-(1-methyl-4-piperidyl)phenyl]-indazol-2-yl]methyl]-4-fluoro-phenol; dihydrochloride]",6 nM,4 nM,–
"O=C1c2cc(-c3ccc(N4CCNCC4)cc3)ccc2CN1C(c1nc2ccccc2[nH]1)c1cc(F)ccc1O (stereo not drawn) [Compound 021, 2-[1H-Benzimidazol-2-yl-(5-fluoro-2-hydroxy-phenyl)methyl]-6-(4-piperazin-1-yiphenyl)isoindolin-1-one;hydrochioride]",–,–,"IC50 [1, 2]: 1650 nM; IC50 [1, 3]: 20 nM"
